Laboratory results taken from patent publication US20220372014A1, “NEUROPROTECTIVE COMPOUNDS AND METHODS OF USE THEREOF” (The Johns Hopkins University, priority 2019, published 2022).

Key:
[1] = target: T1, PAAN/MIF thiol-protein oxidoreductase activity (Homo sapiens, UniProt P14174); assay: Oxidoreductase activity assay (insulin reduction); type: biochemical; details: 10 μM compounds
T1 construct: GST (N, cleaved yes); made in house; host or cells: Escherichia coli
T1 sequence (P14174 1-115): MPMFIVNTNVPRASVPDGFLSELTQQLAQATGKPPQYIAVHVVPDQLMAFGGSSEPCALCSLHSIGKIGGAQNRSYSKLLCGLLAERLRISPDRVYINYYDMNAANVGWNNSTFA
Experimental: Oxidoreductase activity assay. The thiol-protein oxidoreductase activity of PAAN/MIF was measured using insulin as the substrate as described previously. See Kudrin et al. (2006) J. Biol. Chem. 281:29641-51. Briefly, the insulin assay is based on the reduction of insulin and subsequent insolubilization of the insulin β-chain. The time-dependent increase in turbidity is then measured spectrophotometrically at 650 nm. The reaction was started by adding 5 μM PAAN/MIF WT in the presence or absence of 10 μM compounds (compounds 41, 56, 76, and 77) dissolved in 20 mM sodium phosphate buffer (pH 7.2), and 200 mM reduced glutathione (GSH) to ice-cold reaction mixture containing 1 mg/ml insulin, 100 mM sodium phosphate buffer (pH 7.2) and 2 mM EDTA. Insulin reduction was measured against the control solution (containing GSH) in the same experiment.

PARP = assay: MNNG-induced PAR accumulation (PARP activation), western blot; type: cell-based; details: FIG. 12A
Experimental: Tissue lysate preparation and western blot analysis. Dissected brain regions of interest were homogenized and prepared in lysis buffer [50 mM Tris-HCl (pH 7.4), 150 mM NaCl, 1 mM EDTA, 1% Triton x-100, 0.5% SDS, 0.5% sodium-deoxycholate, phosphatase inhibitor mixture I and II (Sigma-Aldrich, St. Louis, Mo.), and complete protease inhibitor mixture (Roche, Indianapolis, Ind.)]. The samples were rotated at 4° C. for 30 min for the complete lysis and centrifugated at 15,000×g for 30 min. Protein concentrations were determined using the BCA assay (Pierce) and samples were separated using SDS polyacrylamide gels and transferred onto nitrocellulose membranes. The blots were blocked with 5% non-fat milk in TBS-T (Tris buffered saline with 0.1% Tween—20) for 1 h, probed using various primary antibodies. Target antigens were incubated with appropriate HRP-conjugated secondary antibodies (Cell signaling) and were visualized by ECL substrate.
Cell culture, transfection, primary neuronal culture and treatment. SH-SY5Y cells (ATCC) were cultured in DMEM containing 10% fetal bovine serum and penicillin/streptomycin at 37° C. under 5% C02. The cells were transfected using PolyFect reagent (Qiagen). Parthanatos was induced by the treatment of 50 μM MNNG for 15 min in SH-SY5Y cells. ABT-888 or PAAN/MIF inhibitors were pretreated with indicated concentration 1 h before MNNG treatment and cell death were assessed after 24 h. Primary cortical neurons from WT, PAAN/MIF KO, E22Q KI or P1G KI embryos were prepared as previously described See Kam et al. (2018) Science 362:eaat8407. Briefly, the cortex was dissected and cultured at embryonic day 16 in neurobasal media supplemented with B-27, 0.5 mM L-glutamine, penicillin and streptomycin (Invitrogen). Primary neurons were infected with AAV2-control, AAV2-PAAN/MIF WT, AAV2-PAAN/MIF E22Q, AAV2-PAAN/MIF E22A or AAV2-MIF P1G (ViGene Biosciences) at days in vitro (DIV) 4-5. ABT-888 or PAAN/MIF inhibitors were applied to neurons 1 h before α-syn PFF treatment. The neuron growth medium was replaced with fresh medium alone or including inhibitors every 3-4 days. α-syn PFF was added at DIV 7 and further incubated for indicated times followed by the cell death assay or biochemical experiments.

EcoRV = EcoRV (Escherichia coli, UniProt P04390); assay: In vitro nuclease assay of EcoRV (pcDNA3 substrate); type: biochemical
Sequence of EcoRV (P04390 whole entry): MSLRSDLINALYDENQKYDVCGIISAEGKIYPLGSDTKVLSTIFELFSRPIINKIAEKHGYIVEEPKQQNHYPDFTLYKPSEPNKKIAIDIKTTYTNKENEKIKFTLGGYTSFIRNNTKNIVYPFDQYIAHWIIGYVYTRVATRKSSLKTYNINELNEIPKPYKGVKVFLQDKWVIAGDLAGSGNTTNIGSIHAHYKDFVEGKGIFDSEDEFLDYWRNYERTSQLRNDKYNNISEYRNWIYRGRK
Experimental: Nuclease assay. Purified PAAN/MIF protein (4 μM) was incubated with compounds (10 μM) in the nuclease buffer [10 mM Tris-C1 (pH 7.0) and 10 mM MgCl2] for 20 m on ice. Then samples were added with 1 μM of PAAN/MIF substrate (PS30 or RF) and incubated for 1 h at 37° C. The reaction was terminated with loading buffer containing 10 mM EDTA and separated on 15% TBE-urea polyacrylamide (PAGE) gel or 20% TBE PAGE gel. For other nucleases (EcoRI and EcoRV) assays, pcDNA3 (500 ng/reaction) was used as a substrate and 0.01 unit of Exonulcase III were incubated with small dsDNA (Sequence ID NO 4:5′-[…]-3′ and Sequence ID NO 5:5′-[…]-3′).

## COc1ccc(CC[C@H]2OC(=O)[C@@H]3CCCCN3C(=O)C(=O)C(C)(C)COC(=O)C=CCCN(C)C(=O)[C@@H]3CCCN3C(=O)[C@H](COC(C)(C)C)N(C)C(=O)C(c3ccccc3)NC(=O)CN(C)C(=O)COc3cccc2c3)cc1OC (stereo partly drawn) [compound 41]
[1]
  MIF's oxidoreductase activity: Neither did they inhibit
PARP
  MNNG-induced PARP activation (PAR accumulation): did not affect
EcoRV
  nuclease activity of EcoRV: do not inhibit

## COc1ccc(CC[C@H]2OC(=O)[C@@H]3CCCCN3C(=O)C(=O)C(C)(C)COC(=O)C=CCCN(C)C(=O)[C@@H]3CCCN3C(=O)[C@H](COC(C)(C)C)N(C)C(=O)C(c3ccccc3)NC(=O)[C@H](C)N(C)C(=O)COc3cccc2c3)cc1OC (stereo partly drawn) [compound 56]
[1]
  MIF's oxidoreductase activity: Neither did they inhibit
PARP
  MNNG-induced PARP activation (PAR accumulation): did not affect
EcoRV
  nuclease activity of EcoRV: do not inhibit

## COc1ccc(CC[C@H]2OC(=O)[C@@H]3CCCCN3C(=O)C(=O)C(C)(C)COC(=O)C=CCCN(C)C(=O)CNC(=O)[C@H](C(C)C)N(C)C(=O)[C@@H](Cc3ccccc3)NC(=O)[C@H](CC(C)C)N(C)C(=O)CCC(=O)Nc3cccc2c3)cc1OC [compound 76]
[1]
  MIF's oxidoreductase activity: Neither did they inhibit
PARP
  MNNG-induced PARP activation (PAR accumulation): did not affect
EcoRV
  nuclease activity of EcoRV: do not inhibit

## COc1ccc(CC[C@H]2OC(=O)[C@@H]3CCCCN3C(=O)C(=O)C(C)(C)COC(=O)C=CCCN(C)C(=O)[C@H](C)NC(=O)[C@H](C(C)C)N(C)C(=O)[C@@H](Cc3ccccc3)NC(=O)[C@H](CC(C)C)N(C)C(=O)CCC(=O)Nc3cccc2c3)cc1OC [compound 77]
[1]
  MIF's oxidoreductase activity: Neither did they inhibit
PARP
  MNNG-induced PARP activation (PAR accumulation): did not affect
EcoRV
  nuclease activity of EcoRV: do not inhibit
